Reference: patent publication US5773522A, “Polymer-bound camptothecin derivatives” (priority 1993, dated 1998)

Assays:
[1] = Toxicity (LD10, LD50) in healthy mice; format: in vivo, C57Bl/F mice; details: mouse, in vivo, iv, healthy C57B1/F mice; read-out: LD50 (dose inducing 50% of death mice)
[2] = system: healthy C57Bl/F mice; test: Toxicity (LD10, LD50) in healthy mice; format: in vivo; details: i.v., healthy C57B1/F mice
[3] = system: early M5076 murine reticulosarcoma; test: Antitumor activity against early M5076 murine reticulosarcoma; format: in vivo, C57Bl/6 mice; details: 7.5 mg/kg (CPT equivalent); for % tumor inhib.: estimated one week after the last treatment
Protocol: Camptothecin (CPT) was dissolved in sterile water with 10% tween. […]
(§1) M5076 muine reticulosarcoma was maintained by serial i.m. passages and transplanted s.c. (5×10^5 cells/mouse) in compatible C57Bl/6 mice.
(§2) All animals were from Charles River Calco, Como, Italy.
(§3) Ten mice/group for conventional and eight for athymic mice were used.
(§4) The conventional mice weighed 20 to 22 g and were kept under standard laboratory conditions.
(§5) The mouse colony was routinely tested for the absence of antibodies to a panel of pathogens including Mouse Hepatitis, Sendai Virus and Mycoplasma Pulmonis.
(§6) Tumor growth was assesed by caliper measurement and the tumor weight estimated according to Geran et al. (see: Cancer Chem.Rep., Part 3, 3 (2) ed. 3, pp 1-103, 1972). The antitumor activity is expressed as percentage of inhibition of tumor growth (%T/I) using the following formula: [formula] The median increase in survival time (T/C%) was calculated using the following formula: [formula]
(§7) Toxicity was evaluated on the basis of the body weight reduction and gross autopsy findings, mainly in terms of reduction of spleen and liver size.

[4] = system: advanced M5076 murine reticulosarcoma; test: Antitumor activity against advanced M5076 murine reticulosarcoma; format: in vivo, C57Bl/6 mice; details: iv on day 16,20,24,28,31,35; for % tumor inhibition: estimated at day 34
Protocol: (§8) Camptothecin (CPT) was dissolved in sterile water with 10% tween.
(§9) Treatment was administered i.v. in a volume of 10 ml/kg of body weight and control mice were treated with sterile water.
as §1, §2, §3, §4, §5, §6, §7

[5] = system: HT29/Colon Carcinoma; test: Antitumor activity in athymic mice transplanted s.c. with HT29 Colon Carcinoma; format: in vivo, athymic Swiss/nu/ mice; details: for % tumor inhib. / TOX (number of toxic deaths/total number of mice) / cured mice (tumor free mice 90 days after tumor implant): 7.5 mg/kg (CPT equivalent), iv q4dx6
Protocol: as §8, §9
HT29 Colon Carcinoma was transplanted s.c. in athymic Swiss/nu/ mice using 15-20 mg of tumor brei.
as §2, §3, §5, §6
Cured mice are mice without tumor at the end of the experiment.
as §7

[6] = background statement; cited from earlier work
[7] = Stability of polymeric conjugates in murine or human plasma (camptothecin release); format: in vitro ADME
Protocol: Each sample was extracted by adding 100 μl of 0.25M phosphoric acid, 500 μl CH3 CN and 700 μl ethyl acetate and vigorously shaking for 20 minutes at 4° C. After that time, the sample was spun at 15000×g for 10 minutes and the supernatant was separated. To the residue was added 300 μl of CH3 CN and 500 μl was spun at 15000×g for 10 minutes. The supernatant was separated. The organic phases were pooled and evaporated using a high vacuum centrifuge. The sample was recovered by adding 500 μl of MeOH/water pH2 (70/30 by volume) and injected into HPLC apparatus for determining the total drug percentage content.

[8] = Water solubility; format: physicochemical; details: dissolved in saline

Question: With `CC[C@@]1(O)C(=O)OCc2c1cc1n(c2=O)Cc2cc3ccccc3nc2-1` [CPT, camptothecin] as the molecule, how does the LD50 [1] read?
Answer: Its LD50 is 43.4 mg/kg.

Question: And the “LD10 (dose inducing 10% of death mice)” value [2]?
Answer: Its value is 16.9 mg/kg.

Question: And the “T/C % (median increase in survival time)” value ([3]; ip 1,6,9)?
Answer: The value was 165%.

Question: And the “TOX (number of toxic deaths/total number of mice)” value ([3]; ip 1,6,9)?
Answer: The value was 0/10.

Question: And the “% tumor inhib.” value ([3]; ip 1,6,9)?
Answer: Its value is 100%.

Question: And the “T/C % (median increase in survival time)” value ([4]; 7.5 mg/kg (CPT equivalent))?
Answer: The value was 173%.

Question: What about the “TOX (number of toxic deaths/total number of mice)” value ([4]; 7.5 mg/kg (CPT equivalent)) of the same molecule?
Answer: The value was 0/10.

Question: And the “% tumor inhibition” value ([4]; 7.5 mg/kg (CPT equivalent))?
Answer: Its value is 72%.

Question: And the “% tumor inhib.” value [5]?
Answer: Its value is 83%.

Question: And the “TOX (number of toxic deaths/total number of mice)” value [5]?
Answer: Its value is 0/10.

Question: What about the “cured mice (tumor free mice 90 days after tumor implant)” value [5] of the same molecule?
Answer: Its value is 0/10.

Question: What about the “solubility in vehicles suitable for parenteral administration (in words)” value [6] of the same molecule?
Answer: The value was “practically insoluble”.

Question: Which “camptothecin released after plasma incubation” value (“camptothecin released” below) ([7]; after 60 hours) does the source give for “Copolymer of N-(2-hydroxypropyl)methacrylamide, 20-O-[N-methacryloylglycyl -L-phenylalanyl-L-leucylglycyl] camptothecin and N-(2-hydroxypropyl) methacryloylglycinamide [Compound A2]” here?
Answer: Its value is 100%.

Question: What about the “T/C % (median increase in survival time)” value ([3]; iv 1,6,9) of the same molecule?
Answer: Its value is 171%.

Question: What about the “TOX (number of toxic deaths/total number of mice)” value ([3]; iv 1,6,9) of the same molecule?
Answer: The value was 0/10.

Question: And the “% tumor inhib.” value ([3]; iv 1,6,9)?
Answer: Its value is 100%.

Question: And the “T/C % (median increase in survival time)” value ([4]; 10.0 mg/kg (CPT equivalent))?
Answer: Its value is 174%.

Question: And the “TOX (number of toxic deaths/total number of mice)” value ([4]; 10.0 mg/kg (CPT equivalent))?
Answer: The value was 0/10.

Question: What about the “% tumor inhibition” value ([4]; 10.0 mg/kg (CPT equivalent)) of the same molecule?
Answer: The value was 80%.

Question: And the “T/C % (median increase in survival time)” value ([4]; 15.0 mg/kg (CPT equivalent))?
Answer: The value was 183%.

Question: What about the “TOX (number of toxic deaths/total number of mice)” value ([4]; 15.0 mg/kg (CPT equivalent)) of the same molecule?
Answer: Its value is 0/10.

Question: And the “% tumor inhibition” value ([4]; 15.0 mg/kg (CPT equivalent))?
Answer: Its value is 95%.

Question: And the “water solubility (in words)” value [8]?
Answer: The value was “highly water soluble”.

Question: What about the “% tumor inhib.” value [5] of the same molecule?
Answer: Its value is 96%.

Question: What about the “TOX (number of toxic deaths/total number of mice)” value [5] of the same molecule?
Answer: The value was 0/18.

Question: And the “cured mice (tumor free mice 90 days after tumor implant)” value [5]?
Answer: Its value is 3/18.

Question: What about the “antitumor activity compared with camptothecin (in words)” value ([5]; all experiments (HT29, early and advanced M5076)) of the same molecule?
Answer: Its value is “striking higher activity”.

Question: With “Copolymer of N-(2-hydroxypropyl)methacrylamide, 20-O-[N-methacryloylglycyl-(6-aminohexanoylyl]camptothecin and N-(2-hydroxy -propyl)methacryloylglycinamide [Al]” as the molecule, how does the “camptothecin released” value ([7]; after 120 hours) read?
Answer: Its value is 10%.

Question: With “Copolymer of N-(^2 -hydroxypropyl)methacrylamide) 9-amino-20-O-[N-methacryloylglycyl-L-phenylalanyl-L-leucylglycyl] campto-thecin and N-(2-hydroxypropyl)methacryloylalycinamide [Compound A3]” as the molecule, how does the “camptothecin released” value ([7]; after 50 hours) read?
Answer: Its value is 100%.
